Reference: patent US20240132492A1, “PYRIDOPYRIMIDINE-BASED COMPOUND AND APPLICATION THEREOF” (JINAN UNIVERSITY, priority 2021, published 2024)

What was measured:
Assay type in all cases: cell-based
BT-549 = experiment: CCK-8 tumor cell proliferation, BT-549; conditions: Homo sapiens, BT-549 cells, 72 hours
Experimental: (§1) Tumor cells (see Table 2 to Table 5) were inoculated in 96-well plates in complete culture medium (2000-3000 cells/well). After overnight incubation, the compounds with different concentrations (0.000508 μM-10 μM) were used to treat the cells separately for 72 hours. CCK-8 (Cell Counting Kit 8, Dojindo Laboratories, Kumamoto, Japan) experiment was used to evaluate cell proliferation. GraphPad Prism 5.0 software (La Jolla, CA) was used to calculate the half-maximal inhibitory concentration (IC50) values by fitting the concentration response curve. Each IC50 value was represented as an average value±SD.

Huh7 = experiment: CCK-8 tumor cell proliferation, Huh7; conditions: Homo sapiens, Huh-7, Huh7 cells, 72 hours
Experimental: as §1

MDA-MB-231 = experiment: CCK-8 tumor cell proliferation, MDA-MB-231; conditions: Homo sapiens, MDA-MB-231 cells, 72 hours
Experimental: as §1

Bel-7402 = experiment: CCK-8 tumor cell proliferation, Bel-7402; conditions: Homo sapiens, Bel-7402 cells, 72 hours
Experimental: as §1

HCC1937 = experiment: CCK-8 tumor cell proliferation, HCC1937; conditions: Homo sapiens, HCC1937 cells, 72 hours
Experimental: as §1

MDA-MB-453 = experiment: CCK-8 tumor cell proliferation, MDA-MB-453; conditions: Homo sapiens, MDA-MB-453 cells, 72 hours
Experimental: as §1

AKT1 = target: T1, AKT1 (Homo sapiens, UniProt P31749); experiment: Western Blot, degradation of AKT1 protein in H1975-OR cells; conditions: 1000 nM, 24 hours, maximum degradation rate
T1 construct: AKT1, AKT2, and AKT3 proteins in H1975-OR cells; endogenous in cells; host or cells: H1975-OR (osimertinib-resistant H1975)
T1 sequence (P31749 whole entry): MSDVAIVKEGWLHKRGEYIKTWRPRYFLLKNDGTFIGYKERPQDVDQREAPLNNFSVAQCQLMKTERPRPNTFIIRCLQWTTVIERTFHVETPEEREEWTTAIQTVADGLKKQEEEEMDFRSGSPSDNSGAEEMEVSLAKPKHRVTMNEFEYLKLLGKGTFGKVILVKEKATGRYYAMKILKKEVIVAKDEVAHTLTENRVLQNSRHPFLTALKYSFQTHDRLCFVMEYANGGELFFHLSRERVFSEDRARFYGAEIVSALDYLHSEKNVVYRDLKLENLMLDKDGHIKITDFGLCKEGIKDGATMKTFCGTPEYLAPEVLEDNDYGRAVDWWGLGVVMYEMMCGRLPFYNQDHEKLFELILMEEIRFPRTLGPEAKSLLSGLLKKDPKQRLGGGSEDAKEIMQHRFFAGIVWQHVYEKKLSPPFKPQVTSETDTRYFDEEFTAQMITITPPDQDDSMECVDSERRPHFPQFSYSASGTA
How it was run: (§2)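 H1975-OR cells are Osimertinib-resistant H1975, adapted stepwise from 50 nM to 3 μM Osimertinib. Cells were treated with compound for 24 h, lysed, and immunoblotted with ECL detection. Band grayscale density was quantified.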

H1975OR = experiment: CCK-8 tumor cell proliferation, H1975OR; conditions: H1975OR cells (Osimertinib resistant), 72 hours
How it was run: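 Osimertinib-resistant H1975 cells, selected by raising Osimertinib stepwise from 50 nM to 3 μM, were treated for 72 h with compound at 0.000508–10 μM. Proliferation was read by CCK-8, and IC50 came from fitting the concentration–response curve, given as mean ± SD.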

AKT3 = AKT3 (Homo sapiens, UniProt Q9Y243); experiment: Western Blot, degradation of AKT3 protein in H1975-OR cells; design: endogenous in cells; host or cells: H1975-OR (osimertinib-resistant H1975); conditions: 1000 nM, 24 hours, maximum degradation rate
Sequence of AKT3 (Q9Y243 whole entry): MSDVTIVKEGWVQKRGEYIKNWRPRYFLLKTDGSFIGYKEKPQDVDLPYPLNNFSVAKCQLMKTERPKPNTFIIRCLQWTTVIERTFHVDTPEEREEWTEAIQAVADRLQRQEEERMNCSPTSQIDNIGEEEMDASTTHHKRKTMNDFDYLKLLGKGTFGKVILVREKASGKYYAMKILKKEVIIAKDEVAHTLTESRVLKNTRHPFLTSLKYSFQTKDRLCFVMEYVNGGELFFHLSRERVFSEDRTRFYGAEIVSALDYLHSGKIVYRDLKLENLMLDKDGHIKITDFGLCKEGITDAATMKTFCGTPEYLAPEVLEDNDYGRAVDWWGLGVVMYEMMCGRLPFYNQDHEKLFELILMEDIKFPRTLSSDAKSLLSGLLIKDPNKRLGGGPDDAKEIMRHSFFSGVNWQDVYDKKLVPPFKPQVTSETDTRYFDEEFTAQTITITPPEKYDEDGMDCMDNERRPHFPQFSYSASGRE
How it was run: as §2

AKT2 = target: T2, AKT2 (Homo sapiens, UniProt P31751); experiment: Western Blot, degradation of AKT2 protein in H1975-OR cells; conditions: 1000 nM, 24 hours, maximum degradation rate
T2 construct: AKT1, AKT2, and AKT3 proteins in H1975-OR cells; endogenous in cells; host or cells: H1975-OR (osimertinib-resistant H1975)
T2 sequence (P31751 whole entry): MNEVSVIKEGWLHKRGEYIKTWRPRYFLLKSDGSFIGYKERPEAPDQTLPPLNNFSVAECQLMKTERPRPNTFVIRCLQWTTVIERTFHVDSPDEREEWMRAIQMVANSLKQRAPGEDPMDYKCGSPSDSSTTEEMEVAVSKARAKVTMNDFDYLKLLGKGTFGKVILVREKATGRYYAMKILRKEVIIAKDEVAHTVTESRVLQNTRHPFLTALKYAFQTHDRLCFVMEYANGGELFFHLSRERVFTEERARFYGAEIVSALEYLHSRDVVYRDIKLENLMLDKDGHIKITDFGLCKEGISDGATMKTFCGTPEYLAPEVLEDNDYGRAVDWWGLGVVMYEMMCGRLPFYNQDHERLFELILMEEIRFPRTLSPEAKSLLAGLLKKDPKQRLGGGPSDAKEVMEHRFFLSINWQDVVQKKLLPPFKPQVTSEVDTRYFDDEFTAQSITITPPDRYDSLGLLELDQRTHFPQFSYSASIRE
How it was run: as §2

H1975 = experiment: CCK-8 tumor cell proliferation, H1975; conditions: Homo sapiens, NCI-H1975, H1975 cells, 72 hours
How it was run: (§3)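 Tumor cells grown in complete medium are exposed for 72 hours to compounds spanning 0.000508 μM to 10 μM. Viability is read by CCK-8 and IC50 derived by concentration-response fitting.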

HCC827 = experiment: CCK-8 tumor cell proliferation, HCC827; conditions: Homo sapiens, HCC827 cells, 72 hours
How it was run: as §3

PC-9 = experiment: CCK-8 tumor cell proliferation, PC-9; conditions: Homo sapiens, PC-9 cells, 72 hours
How it was run: as §3

H1299 = experiment: CCK-8 tumor cell proliferation, H1299; conditions: Homo sapiens, NCI-H1299, H1299 cells, 72 hours
Experimental: as §1

A431 = experiment: CCK-8 tumor cell proliferation, A431; conditions: Homo sapiens, A-431, A431 cells, 72 hours
How it was run: as §3

SMILES	IC50 (BT-549) [µM]	IC50 (Huh7) [µM]	Dmax at 1 µM (AKT1) [%]	IC50 (H1975OR) [µM]	Dmax at 1 µM (AKT3) [%]	Dmax at 1 µM (AKT2) [%]	IC50 (H1975) [µM]	other results
COc1cc(N2CC3(CN(C(=O)CC45CC6CC(CC(C6)C4)C5)C3)C2)ccc1Nc1ncc2c(C)cc(=O)n(-c3cccc(NC(=O)C4CC4)c3)c2n1 [ZX-HYT-91, N-(3-(2-((4-(6-(2-((3R,5R,7R)-adamantan-1-yl)acetyl)-2,6-diazospira [3.3]hept-2-yl))-2-methoxyphenyl)amino)-5-methyl-7-oxypyridino [2,3-d]pyrimidin-8 (7H)-yl) phenyl) cyclopropane formamide]	0.937	3						
COc1nc(N2CCN(C(=O)C34CC5CC(CC(C5)C3)C4)CC2)ccc1Nc1ncc2c(C)cc(=O)n(-c3cccc(NC(=O)C4CC4)c3)c2n1 [ZX-HYT-69, N-(3-(2-((6-(4-((3R, 5R, 7R)-adamantan-1-carbonyl)piperazin-1-yl)-2-methoxypyridin-3-yl)amino)-5-methyl-7-oxypyridino [2,3-d]pyrimidin-8 (7H)-yl)phenyl) cyclopropane formamide]	3	> 10						
COc1cc(N2CCN(C(=O)NC34CC5CC(CC(C5)C3)C4)CC2)ncc1Nc1ncc2c(C)cc(=O)n(-c3cccc(NC(=O)C4CC4)c3)c2n1 [ZX-HYT-71, N-((3S, 5S, 7S)-adamantan-1-yl)-4-(5-((8-(3-(cyclopropaneformamido)phenyl)-5-methyl-7-oxy-7,8-dihydropyridino [2,3-d]pyrimidin-2-yl)amino)-4-methoxypyridin-2-yl) piperazin-1-formamide]	1.25	> 10						
COc1cc(N2CCN(C(=O)NC34CC5CC(CC(C5)C3)C4)CC2)ccc1Nc1ncc2c(C)cc(=O)n(-c3cccc(NC(=O)C4CC4)c3)c2n1 [ZX-HYT-64, N-((3S, 5S, 7S)-adamantan-1-yl)-4-(4-((8-(3-(cyclopropaneformamido)phenyl)-5-methyl-7-oxy-7,8-dihydropyridino [2,3-d]pyrimidin-2-yl)amino)-3-methoxyphenyl) piperazin-1-formamide]	0.141							IC50 (MDA-MB-231): 0.0152 µM; IC50 (Bel-7402): 0.37 µM; IC50 (HCC1937): 4 µM; IC50 (MDA-MB-453): > 10 µM
COc1nc(N2CCN(C(=O)NC34CC5CC(CC(C5)C3)C4)CC2)ccc1Nc1ncc2c(C)cc(=O)n(-c3cccc(NC(=O)C4CC4)c3)c2n1 [ZX-HYT-68, N-((3S, 5S, 7S)-adamantan-1-yl)-4-(5-((8-(3-(cyclopropaneformamido)phenyl)-5-methyl-7-oxy-7,8-dihydropyridino [2,3-d]pyrimidin-2-yl)amino)-6-methoxypyridin-2-yl) piperazin-1-formamide]	0.0386	> 10						
COc1cc(N2CCN(CCCCCCCCCCCCNC(=O)CC34CC5CC(CC(C5)C3)C4)CC2)ccc1Nc1ncc2c(C)cc(=O)n(-c3cccc(NCC4CC4)c3)c2n1 [ZX-HYT-19, 2-((3R, 5R, 7R)-adamantan-1-yl)-N-(12-(4-(4-(8-(3-((cyclopropylmethyl)amino)phenyl)-5-methyl-7-oxy-7,8-dihydropyridino [2,3-d]pyrimidin-2-yl)amino)-3-methoxyphenyl)piperazin-1-yl) dodecyl) acetamide]	0.00421		0	3.46	28	0	2.29	IC50 (MDA-MB-231): < 0.001 µM; IC50 (Bel-7402): 0.041 µM; IC50 (MDA-MB-453): > 10 µM
COc1nc(N2CCN(C(=O)CC34CC5CC(CC(C5)C3)C4)CC2)ccc1Nc1ncc2c(C)cc(=O)n(-c3cccc(NC(=O)C4CC4)c3)c2n1 [ZX-HYT-67, N-(3-(2-(6-(4-(2-((3R, 5R, 7R)-adamantan-1-yl)acetyl)piperazin-1-yl)-2-methoxypyridin-3-yl))amino)-5-methyl-7-oxypyridino [2,3-d] pyrimidin-8 (7H)-yl) phenyl) cyclopropane formamide]	0.376	> 10						
COc1cc(N2CCC(C(=O)NCC34CC5CC(CC(C5)C3)C4)CC2)ccc1Nc1ncc2c(C)cc(=O)n(-c3cccc(NC(=O)C4CC4)c3)c2n1 [ZX-HYT-89, N-(((3R, 5R, 7R)-adamantan-1-yl)methyl)-1-(4-((8-(3-(cyclopropaneformamido)phenyl)-5-methyl-7-oxy-7,8-dihydropyridino [2,3-d]pyrimidin-2-yl)amino)-3-methoxyphenyl) piperidin-4-formamide]	0.0267	0.12						
COc1cc(N2CCN(CCCCCCCCCCCCNC(=O)CC34CC5CC(CC(C5)C3)C4)CC2)ccc1Nc1ncc2c(C)cc(=O)n(-c3cccc(N)c3)c2n1 [ZX-HYT-17, 2-((3R, 5R, 7R)-adamantan-1-yl)-N-(12-(4-(4-(8-(3-aminophenyl)-5-methyl-7-oxy-7,8-dihydropyridino [2,3-d]pyrimidin-2-yl)amino)-3-methoxyphenyl)piperazin-1-yl) dodecyl) acetamide]			46.4	0.023 ± 0.007	76.4	45.9	0.214 ± 0.013	IC50 (HCC827): 0.186 ± 0.122 µM; IC50 (PC-9): 0.0234 ± 0.00578 µM; IC50 (H1299): 2.1 ± 0.049 µM; IC50 (A431): 0.0225 ± 0.0035 µM
COc1cc(N2CCN(C(=O)C34CC5CC(CC(C5)C3)C4)CC2)ncc1Nc1ncc2c(C)cc(=O)n(-c3cccc(NC(=O)C4CC4)c3)c2n1 [ZX-HYT-72, N-(3-(2-((6-(4-((3R, 5R, 7R)-adamantan-1-carbonyl)piperazin-1-yl)-4-methoxypyridin-3-yl)amino)-5-methyl-7-oxypyridino [2,3-d]pyrimidin-8 (7H)-yl)phenyl) cyclopropane formamide]	0.626	3						
C=CC(=O)Nc1cccc(-n2c(=O)cc(C)c3cnc(Nc4ccc(N5CCN(CCCCCCCCCCCCCCNC(=O)CC67CC8CC(CC(C8)C6)C7)CC5)cc4OC)nc32)c1 [ZX-HYT-06, N-(3-(2-((4-(4-(14-(2-((3R, 5R, 7R)-adamantan-1-yl)acetylamino)tetradecyl)piperazin-1-yl)-2-methoxyphenyl)amino)-5-methyl-7-oxypyridino [2,3-d]pyrimidin-8 (7H)-yl)phenyl) acrylamide]			0	0.125 ± 0.012	62.9	47	0.837 ± 0.11	IC50 (HCC827): 0.163 ± 0.0134 µM; IC50 (PC-9): 0.0732 ± 0.00431 µM; IC50 (H1299): 0.163 ± 0.0134 µM; IC50 (A431): 0.26 ± 0.047 µM
COc1cc(N2CCN(C(=O)CC34CC5CC(CC(C5)C3)C4)CC2)ncc1Nc1ncc2c(C)cc(=O)n(-c3cccc(NC(=O)C4CC4)c3)c2n1 [ZX-HYT-70, N-(3-(2-((6-(4-(2-((3R, 5R, 7R)-adamantan-1-yl)acetyl)piperazin-1-yl)-4-methoxypyridin-3-yl))amino)-5-methyl-7-oxypyridino [2,3-d]pyrimidin-8 (7H)-yl) phenyl) cyclopropane formamide]	1.02	> 10						
C=CC(=O)Nc1cccc(-n2c(=O)cc(C)c3cnc(Nc4ccc(N5CCN(CCCCCCCCNC(=O)CC67CC8CC(CC(C8)C6)C7)CC5)cc4OC)nc32)c1 [ZX-HYT-03, N-(3-(2-((4-(4-(8-(2-(((3R, 5R, 7R)-adamantan-1-yl)acetamido)octyl)piperazin-1-yl)-2-methoxyphenyl)amino)-5-methyl-7-oxypyridino [2,3-d]pyrimidin-8 (7H)-yl)phenyl)acrylamide]			78.9	0.074 ± 0.004	89.1	64.8	0.844 ± 0.822	IC50 (HCC827): 0.0954 ± 0.0331 µM; IC50 (PC-9): 0.0536 ± 0.00753 µM; IC50 (H1299): 0.876 ± 0.283 µM; IC50 (A431): 0.0299 ± 0.0028 µM
